In patent publication US9273028B2, “Heterocyclic tyrosine kinase inhibitors” (Biogen MA Inc., priority 2010, dated 2016):

Molecular target: T1, BTK (Homo sapiens, UniProt Q06187)
T1 construct: purchased Upstate 14-552
Experiment: In vitro BTK kinase assay (BTK-POLYGAT-LS)
Format: biochemical
Conditions: IC50 (10 uM ATP)
Procedure, shortened: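 Poly-GAT peptide at 100 nM with 10 μM ATP (final) in pH 7.5 Tris buffer containing MgCl2, DTT, Triton X-100 and 0.2 mg/ml casein.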

T1 sequence (Q06187 whole entry): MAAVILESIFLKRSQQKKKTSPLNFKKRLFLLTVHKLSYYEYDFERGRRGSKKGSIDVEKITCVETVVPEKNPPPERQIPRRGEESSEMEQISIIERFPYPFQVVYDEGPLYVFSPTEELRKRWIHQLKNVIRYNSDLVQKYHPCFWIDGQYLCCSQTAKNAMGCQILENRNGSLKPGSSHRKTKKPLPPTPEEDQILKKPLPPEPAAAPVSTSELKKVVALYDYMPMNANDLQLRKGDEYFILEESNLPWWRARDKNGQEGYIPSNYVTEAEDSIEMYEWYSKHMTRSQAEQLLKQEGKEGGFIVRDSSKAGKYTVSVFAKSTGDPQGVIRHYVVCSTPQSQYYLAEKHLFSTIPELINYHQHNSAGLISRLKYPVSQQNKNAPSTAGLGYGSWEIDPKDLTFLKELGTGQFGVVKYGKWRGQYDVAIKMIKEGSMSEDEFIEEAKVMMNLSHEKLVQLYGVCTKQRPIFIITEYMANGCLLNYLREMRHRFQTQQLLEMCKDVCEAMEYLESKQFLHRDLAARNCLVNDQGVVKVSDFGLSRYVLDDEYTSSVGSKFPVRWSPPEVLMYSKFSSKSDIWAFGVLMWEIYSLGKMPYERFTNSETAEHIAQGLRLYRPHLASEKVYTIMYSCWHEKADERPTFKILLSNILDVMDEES

| Compound | IC50 [nM] |
| --- | --- |
| O=C(CNc1cc(F)cc(Cl)c1)N1CCC[C@@H](Nc2ncnc3[nH]ncc23)C1 [Compound 216] | 100 to 999 |
| O=C(CNc1cccc(F)c1)N1CCC[C@H](Nc2ncnc3[nH]ccc23)C1 [Compound 188] | 1000 to 10000 |
| CN(c1ncnc2[nH]ccc12)[C@@H]1CCCN(C(=O)CNc2cc(C(F)(F)F)cc(C(F)(F)F)c2)C1 [Compound 166] | > 10000 |
| O=CNc1cnc(Br)cc1N(C=O)[C@H]1CCCN(C(=O)CNc2cc(Cl)cc(Cl)c2)C1 [Compound 120] | > 10000 |
| CCN(c1ncnc2[nH]ccc12)C1CCCN(C(=O)CNc2cc(Cl)cc(Cl)c2)C1 (stereo not shown) [Compound 108] | 100 to 999 |
| Nc1nc(N[C@H]2CCCN(C(=O)CNc3cc(Cl)cc(Cl)c3)C2)c2cc[nH]c2n1 [Compound 157] | > 10000 |
| CC1CCC(NCC(=O)N2CCC[C@H](Nc3ncnc4[nH]ccc34)C2)CC1 (stereo partly shown) [Compound 139] | > 10000 |
| O=C(CNc1ccc(F)cc1)N1CCC[C@H](Nc2ncnc3[nH]ccc23)C1 [Compound 193] | > 10000 |
| O=C(CNc1ccc(Cl)cc1)N1CCC[C@H](Nc2ncnc3[nH]ncc23)C1 [Compound 184] | > 10000 |
| CN(c1ncnc2[nH]ncc12)[C@H]1CCCN(C(=O)CNc2cc(F)cc(Cl)c2)C1 [Compound 146] | 1000 to 10000 |
| C[C@H]1[C@@H](Nc2ncnc3[nH]ncc23)CCCN1C(=O)CNc1ccccc1S(=O)(=O)N1CCCCC1 [Compound 21] | 1000 to 10000 |
| O=C(CNc1cc(Cl)cc(Cl)c1)N1CC(Nc2ncnc3[nH]ncc23)Cc2ccccc21 (stereo not shown) [Compound 191] | 100 to 999 |

Now from value to compound:

| IC50 [nM] | Compound |
| --- | --- |
| < 100 | CC1C(Nc2ncnc3[nH]ncc23)CCCN1C(=O)CNc1ccccc1S(=O)(=O)C1CCCC1 (stereo not shown) [Compound 69] |
| < 100 | CC[C@@H](Nc1cc(Cl)cc(Cl)c1)C(=O)N1CCCC(Nc2ncnc3[nH]ccc23)C1C (stereo partly shown) [Compound 72] |
| < 100 | O=C(CNc1ccc(F)c(Cl)c1)N1CCC2CCN(c3ncnc4[nH]ccc34)C2C1 (stereo not shown) [Compound 77] |
| < 100 | NC(=O)c1cnc2[nH]ccc2c1N[C@@H]1CCCN(C(=O)CNc2cc(Cl)cc(Cl)c2)[C@@H]1C(F)(F)F [Compound 227] |
| < 100 | CN(c1ncnc2[nH]ncc12)[C@@H]1CCCN(C(=O)CNc2cc(Cl)cc(Cl)c2)C1 [Compound 211] |
| < 100 | CC1C(Nc2ncnc3[nH]ccc23)CCCN1C(=O)CNc1cc(F)cc(Cl)c1 (stereo not shown) [Compound 71] |
| < 100 | CCC1CC2CCN(C(=O)CNc3cc(Cl)cc(Cl)c3)CC2N1c1ncnc2[nH]ccc12 (stereo not shown) [Compound 42] |
